For data set [1], the target named is T1, human serum albumin (Homo sapiens, UniProt P02768).
T1 construct: purchased Daicel Chemical Industries, purchased from Chiral Technologies Europe (Illkirch, France) Chiralpak HSA (5 μm, 50 × 3 mm)
Put plainly: human serum albumin binding, HPLC on Chiralpak HSA column. Type of data set: in vitro ADME. As to conditions: for Log K HSA: calibration reference substances, logarithmic K from the literature HSA binding, ref [3, 4]; for bound to HSA: HPLC, Chiralpak HSA column. As for the experimental part: High in vivo plasma protein binding increases the plasma half-life of the radiopharmaceutical and therefore might offer beneficiary effects on the tracer distribution (higher uptake into target tissue) but can also lead to increased background activity especially at early time points. In general, drugs binding to plasma proteins with high affinity feature moderate to high lipophilicity, in many cases due to halogenated aromatic groups. […] Human albumin binding was determined, applying a modified HPLC method.
Mobile phase A was an ammonium acetate buffer (50 mM, pH 6.9), mobile phase B was 2-propanol, the flow rate was 0.5 mL/min, and equilibration with 0% B for 3 min was followed by a gradient of 0% B to 20% B to the end of each run within 45 min. To check the column performance and to conduct the non-linear regression, the HSA column was calibrated each day with nine reference substances. Afterward, the PSMA inhibitors with unknown HSA binding were measured. The retention times and factors together with correlation curve are found in Additional file 1.
HSA binding experiments were performed as previously described. […] For each run, 10 µL of the solution containing the inhibitor was injected into the RP-HPLC system and the retention time measured. […] Non-linear regression was established with OriginPro 2016G.

Data set [2] deals with T1, human serum albumin. Further details: method as in Valko et. al. or Yamazaki et al. [3, 4]. To be noted: calibration reference substances; ref Valko et. al. or Yamazaki et al. [3, 4]; cited from earlier work.
For data set [3], the target named is T2, PSMA (Homo sapiens, UniProt Q04609).
T2 construct: endogenous in cells; host or cells: LNCaP cells (CLS: 300265)
As to conditions: LNCaP cells 150,000 cells/well, 4 °C, 1 h, c(125I-IBA) = 0.2 nM; mean ± SD; ref [17]; read-out: IC50 (affinity to PSMA); cited from earlier work.

Data set [4] concerns the target T2, PSMA. As to the kind of experiment: competitive binding assay on LNCaP cells (radioligand 125I-IBA). As to conditions: read-out: IC50 (affinity to PSMA). The method, then:
The effect of the lipophilic (aromatic) modifications in the spacer unit of the acetylated PSMA inhibitors 1–9 on the IC50 to PSMA was determined in a competitive binding assay on PSMA-expressing LNCaP cells.
The PSMA affinity was determined as described previously. In brief, 150,000 LNCaP cells were seeded into 24-well plates one day prior to the experiment. […] After removal of the supernatant, the cells were washed once with HBSS and subsequently lysed with 1 n NaOH. Both fractions were quantified in a γ-counter. Using the Graphpad Prism software, binding curves were plotted and IC50 values were extracted. Three independent determinations were performed in triplicate for each compound.

The mark [5] stands for this setting: LNCaP cells 150,000 cells/well, 4 °C, 1 h, c(125I-IBA) = 0.2 nM, mean ± SD (n = 3).

Where two headings read alike, the source gives them in different places.

T1 sequence (P02768 25-609): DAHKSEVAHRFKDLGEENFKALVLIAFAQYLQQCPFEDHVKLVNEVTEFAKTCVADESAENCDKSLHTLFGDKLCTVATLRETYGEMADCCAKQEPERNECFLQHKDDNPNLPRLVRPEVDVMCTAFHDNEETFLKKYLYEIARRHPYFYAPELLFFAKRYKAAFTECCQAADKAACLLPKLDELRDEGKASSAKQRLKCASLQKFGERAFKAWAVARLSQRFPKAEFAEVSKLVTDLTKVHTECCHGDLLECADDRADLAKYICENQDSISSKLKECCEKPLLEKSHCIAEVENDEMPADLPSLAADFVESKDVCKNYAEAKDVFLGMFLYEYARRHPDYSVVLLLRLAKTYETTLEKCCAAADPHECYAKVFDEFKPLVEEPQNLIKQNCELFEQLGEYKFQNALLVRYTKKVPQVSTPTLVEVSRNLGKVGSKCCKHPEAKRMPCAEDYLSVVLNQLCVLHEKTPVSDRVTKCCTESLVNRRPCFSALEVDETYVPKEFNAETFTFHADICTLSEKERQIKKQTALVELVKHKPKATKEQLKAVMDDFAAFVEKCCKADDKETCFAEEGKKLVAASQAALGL
T2 sequence (Q04609 whole entry): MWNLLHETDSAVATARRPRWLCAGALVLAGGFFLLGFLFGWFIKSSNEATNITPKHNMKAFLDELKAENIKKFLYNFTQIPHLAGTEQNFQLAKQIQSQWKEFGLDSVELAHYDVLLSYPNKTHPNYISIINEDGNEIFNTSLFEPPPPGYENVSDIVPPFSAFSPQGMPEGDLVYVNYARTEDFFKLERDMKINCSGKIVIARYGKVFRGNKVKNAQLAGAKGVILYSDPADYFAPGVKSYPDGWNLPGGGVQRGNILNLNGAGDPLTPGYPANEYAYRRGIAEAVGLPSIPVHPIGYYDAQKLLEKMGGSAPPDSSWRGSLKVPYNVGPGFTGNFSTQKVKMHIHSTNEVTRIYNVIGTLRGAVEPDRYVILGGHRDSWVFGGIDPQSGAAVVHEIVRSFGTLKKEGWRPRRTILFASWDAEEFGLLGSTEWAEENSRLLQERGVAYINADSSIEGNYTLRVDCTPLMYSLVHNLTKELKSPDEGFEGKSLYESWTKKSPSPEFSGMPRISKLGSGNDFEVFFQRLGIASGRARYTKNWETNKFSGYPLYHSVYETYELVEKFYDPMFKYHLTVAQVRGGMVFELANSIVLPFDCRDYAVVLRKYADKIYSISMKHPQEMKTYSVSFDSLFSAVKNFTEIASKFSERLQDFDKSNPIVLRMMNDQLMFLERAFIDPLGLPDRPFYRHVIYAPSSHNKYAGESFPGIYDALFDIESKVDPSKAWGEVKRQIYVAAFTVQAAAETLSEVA

As for `Nc1ccccc1` [Aniline], the “Log K HSA” value on human serum albumin [1] was -0.79. Moreover, on human serum albumin [2], the “Lit. HSA% (literature value of human serum albumin binding)” value (“Lit. HSA%” below) is given as 14.06%. For the compound `O=C(O)c1ccccc1` [Benzoic Acid], the “Lit. HSA%” value on human serum albumin [2] is recorded as 34.27%. Regarding `COc1ccc(Cl)cc1C(=O)NCCc1ccc(S(=O)(=O)NC(=O)NC2CCCCC2)cc1` [Glibenclamide], the “Log K HSA” value at human serum albumin [1] stood at 1.69. For the same compound, the “Lit. HSA%” value on human serum albumin [2] is on record as 99.00%. What is called IC50 is the midpoint of a concentration-inhibition curve. Turning to `O=C(O)CC[C@H](NC(=O)N[C@@H](CCCCNC(=O)CCCCCCC(=O)NCCCC[C@@H](NC(=O)[C@@H](Cc1ccccc1)NC(=O)[C@@H](Cc1ccc(O)c(I)c1)NC(=O)CCC(C(=O)O)N1CCN(CC(=O)O)CCN(CC(=O)O)CCN(CC(=O)O)CC1)C(=O)O)C(=O)O)C(=O)O` (some centres unmarked) [PSMA I&T, DOTAGA-(I-y)fk(Sub-KuE)], the 50% inhibitory concentration (IC50) at PSMA [3] is 10.2 ± 3.5 nM. Consider `CC(=O)N[C@@H](Cc1ccc(O)cc1)C(=O)N[C@@H](Cc1ccccc1)C(=O)N[C@@H](CCCCNC(=O)CCCCCCC(=O)NCCCC[C@H](NC(=O)N[C@@H](CCC(=O)O)C(=O)O)C(=O)O)C(=O)O` [PSMA inhibitor 1, Ac-YFK(Sub-KuE)], for which, on PSMA [4], the IC50 came out at 15 ± 1.3 nM. In the case of `CC(=O)N[C@@H](Cc1ccc(O)cc1)C(=O)N[C@@H](Cc1c[nH]c2ccccc12)C(=O)N[C@@H](CCCCNC(=O)CCCCCCC(=O)NCCCC[C@H](NC(=O)N[C@@H](CCC(=O)O)C(=O)O)C(=O)O)C(=O)O` [PSMA inhibitor 2, Ac-YWK(Sub-KuE)], the IC50 on PSMA [4] is 6.8 ± 3.3 nM. Same read-out and setting: for `CC(=O)N[C@@H](Cc1ccc(O)cc1)C(=O)N[C@@H](Cc1ccc(-c2ccccc2)cc1)C(=O)N[C@@H](CCCCNC(=O)CCCCCCC(=O)NCCCC[C@H](NC(=O)N[C@@H](CCC(=O)O)C(=O)O)C(=O)O)C(=O)O` [PSMA inhibitor 4, Ac-Y-(Biphenyl-A)K(Sub-KuE)] the value was 139 ± 117 nM; for `CC(=O)N[C@@H](Cc1ccc(O)cc1)C(=O)N[C@@H](Cc1cccc2ccccc12)C(=O)N[C@@H](CCCCNC(=O)CCCCCCC(=O)NCCCC[C@H](NC(=O)N[C@@H](CCC(=O)O)C(=O)O)C(=O)O)C(=O)O` [PSMA inhibitor 5, Ac-Y-1-Nal-K(Sub-KuE)], 4.3 ± 0.9 nM. For `CC(=O)N[C@@H](Cc1ccc(O)cc1)C(=O)N[C@@H](Cc1ccc2ccccc2c1)C(=O)N[C@@H](CCCCNC(=O)CCCCCCC(=O)NCCCC[C@H](NC(=O)N[C@@H](CCC(=O)O)C(=O)O)C(=O)O)C(=O)O` [PSMA inhibitor 6, Ac-Y-2-Nal-K(Sub-KuE)], the IC50 on PSMA [4] turned out to be 3.9 ± 1.7 nM. `CC(=O)N[C@@H](Cc1ccc(O)cc1)C(=O)N[C@@H](Cc1ccc([N+](=O)[O-])cc1)C(=O)N[C@@H](CCCCNC(=O)CCCCCCC(=O)NCCCC[C@H](NC(=O)N[C@@H](CCC(=O)O)C(=O)O)C(=O)O)C(=O)O` [PSMA inhibitor 7, Ac-Y(4-NO2-F)K(Sub-KuE)]: the IC50 on PSMA [4] is 7.4 ± 0.5 nM. On to `CC(=O)N[C@@H](Cc1ccc(O)cc1)C(=O)N[C@@H](Cc1cc(I)c(O)c(I)c1)C(=O)N[C@@H](CCCCNC(=O)CCCCCCC(=O)NCCCC[C@H](NC(=O)N[C@@H](CCC(=O)O)C(=O)O)C(=O)O)C(=O)O` [PSMA inhibitor 8, Ac-Y(3,5-di-I-Y)K(Sub-KuE)], for which, on PSMA [4], the concentration for half-maximal inhibition (IC50) is 3.8 ± 0.6 nM.

On to `CC(=O)N[C@@H](Cc1ccc(O)cc1)C(=O)N[C@@H](Cc1ccc(O)c(C)c1)C(=O)N[C@@H](CCCCNC(=O)CCCCCCC(=O)NCCCC[C@H](NC(=O)N[C@@H](CCC(=O)O)C(=O)O)C(=O)O)C(=O)O` [PSMA inhibitor 9, Ac-Y(3-CH3-Y)K(Sub-KuE)], for which the IC50 at PSMA [4] was 7.2 ± 0.9 nM. Turning to `O=C(O)CC[C@H](NC(=O)N[C@@H](CCCCNC(=O)CCCCCCC(=O)NCCCC[C@@H](NC(=O)[C@@H](Cc1ccc2ccccc2c1)NC(=O)[C@@H](Cc1ccc(O)cc1)NC(=O)CCC(C(=O)O)N1CCN(CC(=O)O)CCN(CC(=O)O)CCN(CC(=O)O)CC1)C(=O)O)C(=O)O)C(=O)O` (some centres unmarked) [PSMA inhibitor 10, DOTAGA-y-2-nal-k(Sub-KuE)], the IC50 on PSMA [4] (setting [5]) stood at 8.5 ± 2.5 nM.

In the case of `O=C(O)CC[C@H](NC(=O)N[C@@H](CCCCNC(=O)[C@@H](Cc1ccc(I)cc1)NC(=O)CCCC(=O)NCCCC[C@@H](NC(=O)[C@@H](Cc1ccc2ccccc2c1)NC(=O)[C@@H](Cc1ccc(O)cc1)NC(=O)CCC(C(=O)O)N1CCN(CC(=O)O)CCN(CC(=O)O)CCN(CC(=O)O)CC1)C(=O)O)C(=O)O)C(=O)O` (some centres unmarked) [PSMA inhibitor 11, DOTAGA-y-2-nal-k((I-f)-Glut-KuE)], the 50% inhibitory concentration (IC50) at PSMA [4] (setting [5]) was 4.6 ± 0.9 nM. `Oc1ccccc1` [Phenol]: the “Log K HSA” value on human serum albumin [1] is recorded as -0.59. Besides, on human serum albumin [2], the “Lit. HSA%” value was 20.69%. In the case of `CCCN(CCC)S(=O)(=O)c1ccc(C(=O)O)cc1` [Probenecid], the “Log K HSA” value on human serum albumin [1] is recorded as 1.20. Besides, on human serum albumin [2], the “Lit. HSA%” value was 95.00%. Take “^natGa-DOTAGA-(I-y)fk(Sub-KuE) [^natGa-PSMA I&T]”: the IC50 on PSMA [3] is 9.3 ± 3.3 nM. In the case of “^natGa-DOTAGA-y-2-nal-k((I-f)-Glut-KuE) [^natGa-11]”, the IC50 at PSMA [4] (setting [5]) was 9.3 ± 2.9 nM. Take “^natGa-DOTAGA-y-2-nal-k(Sub-KuE) [^natGa-10]”: at PSMA [4] (setting [5]), the half-maximal inhibitory concentration (IC50) was 9.8 ± 3.2 nM. Consider “^natLu-DOTAGA-(I-y)fk(Sub-KuE) [^natLu-PSMA I&T]”, for which the “bound to HSA” value on human serum albumin [1] stood at 79%. The IC50 at PSMA [3] is 7.9 ± 2.4 nM. As for “^natLu-DOTAGA-y-2-nal-k((I-f)-Glut-KuE) [^natLu-11]”, the half-inhibitory concentration (IC50) on PSMA [4] (setting [5]) came out at 6.1 ± 1.6 nM. Also, the “bound to HSA” value at human serum albumin [1] came out at 97%. For “^natLu-DOTAGA-y-2-nal-k(Sub-KuE) [^natLu-10]” the same measures were 2.1 ± 0.8 nM and 83%.

The values are drawn from paper PMC6104465, “Synthesis and in vitro and in vivo evaluation of urea-based PSMA inhibitors with increased lipophilicity” (EJNMMI Research, 2018).
